According to PMC4992173, “Divergent synthesis and identification of the cellular targets of deoxyelephantopins” (Nature Communications, 2016):

Columns and labels:
[1] = tested on: proteins enriched from MCF7 cells by probe 24c; assay: SILAC competitive profiling with probe 24c in MCF7 lysates, proteome-wide; type: binding, human; conditions: 20 μM deoxyelephantopin, 10 μM 24c, SILAC ratio<0.30
Text: In our efforts to determine the direct molecular targets of deoxyelephantopin we first performed a gel-based competitive in situ proteomic profiling assay[41] […] While the greater conformational flexibility of probe 24c could potentially lead to more promiscuous target engagement relatively to deoxyelephantopin, it was favoured based on the fact that an alkyne moiety appended to the rigid scaffold of deoxyelephantopin may hinder some of its interactions. MCF7 cells were pretreated with various concentrations of deoxyelephantopin for 4 h, harvested, lysed and the lysates were treated with the fluorogenic probe 24c-Cy3 (10 μM; Supplementary Fig. 10). […] Furthermore, cells were pretreated with 20 μM concentration of deoxyelephantopin or 24c and the proteomic profiles were compared (Fig. 6b, Supplementary Fig. 11). Multiple bands were detected that were equally competed by both DEP and 24c, thus again confirming that 24c can be used as an acceptable clickable analogue of deoxyelephantopin in pulldown assays. Having established the optimal labelling conditions by SDS–PAGE, we next carried out a mass spectrometry-based competitive profiling assay[42] coupled with the method of stable isotope labelling of amino acids in culture (SILAC)[43]. […]
visualization were performed as described above. Images were quantified with ImageJ and kinetics values were calculated using GraphPad Prism (V6.03). […]

[2] = tested on: tumour growth and metastasis; set-up: method as in PMID 20105176; conditions: murine orthotopic breast cancer model, compared with paclitaxel; cited from earlier work

Compound: C=C(C)C(=O)O[C@H]1CC2=C[C@@H](C/C(C)=C/[C@H]3OC(=O)C(=C)[C@H]13)OC2=O [deoxyelephantopin]
- competition of probe 24c labelling (11 proteins) [1]: > 70%
- suppression of tumour growth and metastasis [2]: more effective than paclitaxel
